Reference: US20240423945A1, “USE OF FERROPTOSIS INHIBITOR IN PREPARATION OF DRUG FOR TREATING GASTRITIS” (CHILDREN'S HOSPITAL OF CHONGQING MEDICAL UNIVERSITY, priority 2022, published 2024)

Legend:
[1] = test system: GES-1-134 cell (GRIM-19-knockout human gastric mucosal epithelial cell GES-1); assay: CCK-8 proliferation viability of GES-1-134 cell intervened with ferrostatin-1; type: cell-based; conditions: CCK-8, FIG. 8
Protocol: A CCK-8 kit (Solarbio) was used to analyze the proliferation viability changes of GES-1-NC and GES-1-134 cells, and a specific process was as follows: • (1) The cells were inoculated into a 96-well plate at 5,000 cells/well. • (2) The cells were cultivated at 37° C. and 5% CO2 for 24 h, 48 h, and 72 h. • (3) 10 μL of a CCK-8 solution was added to each well during detection. • (4) The plate was incubated in an incubator for 1 h. • (5) A microplate reader was used to determine the absorbance at 450 nm.
A CCK-8 kit was used to analyze a change of proliferation viability of the GES-1-134 cell intervened with the ferroptosis inhibitor ferrostatin-1. After the GES-1-134 cell was intervened with the ferroptosis inhibitor ferrostatin-1, the proliferation ability was increased and the viability was recovered.

[2] = test system: GIF, GSII, and Mist1 positive cells in GRIM-19−/− mouse gastric mucosal tissue; assay: GIF/GSII/Mist1 immunofluorescence colocalization analysis of SPEM markers in GRIM-19−/− mouse gastric mucosal tissue; type: in vivo; conditions: intraperitoneally injected, compared with the PBS group, FIG. 11B
Protocol: After a mouse was intraperitoneally injected with the ferroptosis inhibitor ferrostatin-1, an immunofluorescence technique was used to analyze the GIF, GSII, and Mist1 positive colocalization expression of SPEM markers in a gastric mucosal tissue, and a specific process was as follows: • (1) embedding a tissue with OCT; • (2) sectioning; • (3) fixing with 4% PFA; • (4) blocking with serum; • (5) incubating with a primary antibody overnight at 4° C.; • (6) rinsing with PBS 3 times; • (7) incubating with a secondary antibody at room temperature for 2 h; • (8) rinsing with PBS 3 times; • (9) counter-staining with DAPI for 10 min; • (10) rinsing with PBS 3 times; and • (11) mounting with an anti-fluorescence attenuation agent.

[3] = test system: inflammatory factors in the GRIM-19−/− mouse gastric mucosal tissue; assay: WB of inflammatory factors in GRIM-19−/− mouse gastric mucosal tissue intervened with ferrostatin-1; type: in vivo
Protocol: (§1) 4. The expression of GRIM-19 was analyzed by WB, and a specific process was as follows: • (1) The cells were subjected to lysis with an RIPA lysis buffer (Beyotime) on ice for 30 min or more. • (2) A resulting lysate was centrifuged at 12,000 rpm for 10 min, and a resulting supernatant was collected. • (3) A corresponding volume of a sodium dodecyl sulfate-polyacrylamide gel electrophoresis (SDS-PAGE) protein loading buffer was added, and a resulting mixture was incubated in a metal bath at 100° C. for 10 min. • (4) SDS-PAGE was conducted. • (5) Blocking was conducted at room temperature for 30 min. • (6) A primary antibody was added, and a resulting mixture was incubated overnight at 4° C. on a shaker. • (7) A membrane was washed with TBST three times for 10 min each time. • (8) A secondary antibody was added, and a resulting mixture was incubated for 1 h at room temperature on a shaker. • (9) A membrane was washed with TBST three times for 10 min each time. • (10) Development was conducted.
(§2) WB was used to detect the expression of inflammatory factors in the GES-1-134 cell and GRIM-19^−/− mouse after being intervened with the ferroptosis inhibitor ferrostatin-1.

[4] = test system: SPEM marker proteins TFF2, Mist1, Clusterin-1, HE4, and MUC6 in the GRIM-19−/− mouse gastric mucosal tissue; assay: WB of SPEM markers in GRIM-19−/− mouse gastric mucosal tissue intervened with ferrostatin-1; type: in vivo; conditions: intraperitoneally injected, compared with the PBS injection control, FIG. 11A
Protocol: as §1
WB was used to detect the expression of SPEM markers in the gastric mucosal tissue of the GRIM-19^−/− mouse intraperitoneally injected with the ferroptosis inhibitor ferrostatin-1.

[5] = test system: ferroptosis marker proteins (COX2, GPX4, FTH1, and TFR) in the GRIM-19−/− mouse gastric mucosal tissue; assay: WB of ferroptosis marker proteins in GRIM-19−/− mouse gastric mucosal tissue intervened with ferrostatin-1; type: in vivo; conditions: ferrostatin-1 injected, FIG. 9B
Protocol: as §1
(§3) WB was used to analyze the expression of ferroptosis markers in the GES-1-134 cell and the GRIM-19^−/− mouse gastric mucosal tissue that each were intervened with ferrostatin-1.

[6] = test system: inflammatory factors IL-6, TNF-α, VEGF, GM-CSF, IL-1β, and IL-33 in the GES-1-134 cell; assay: WB of inflammatory factors in GES-1-134 cell intervened with ferrostatin-1; type: cell-based, Human; conditions: GES-1-134 cell in vitro, FIG. 10A
Protocol: as §1, §2

[7] = test system: ferroptosis marker proteins (COX2, GPX4, FTH1, and TFR) in the GES-1-134 cell; assay: WB of ferroptosis marker proteins in GES-1-134 cell treated with ferrostatin-1; type: cell-based, Human; conditions: ferrostatin-1 0, 5, 10 μM, FIG. 9A
Protocol: as §1, §3

[8] = compared with the PBS injection control, WB, FIG. 10B

Compound: CCOC(=O)c1ccc(NC2CCCCC2)c(N)c1 [ferrostatin-1]
- proliferation ability [1]: increased
- viability [1]: recovered
- number of GIF+/GSII+ double-positive cells [2]: decreased
- number of GIF+/GSII+/Mist1+ triple-positive cells [2]: decreased
- number of GIF+/Mist1+ double-positive cells [2]: decreased
- number of positive cells (GIF+, GSII+, Mist1+) [2]: decreased significantly
- expression level of IL-6 [3, 8]: significantly reduced
- expression level of TNF-α [3, 8]: significantly reduced
- expression of GM-CSF ([3]; in vivo injection): effectively reduce
- expression of IL-1β ([3]; in vivo injection): effectively reduce
- expression of IL-33 ([3]; in vivo injection): effectively reduce
- expression of VEGF ([3]; in vivo injection): effectively reduce
- expression of Clusterin-1 [4]: significantly weakened
- expression of HE4 [4]: significantly weakened
- expression of MUC6 [4]: significantly weakened
- expression of Mist1 [4]: significantly weakened
- expression of TFF2 [4]: significantly weakened
- expression level of COX-2 [5]: showed the same change trend
- expression level of FTH1 [5]: showed the same change trend
- expression level of GPX4 [5]: showed the same change trend
- expression level of TFR [5]: showed the same change trend
- expression level of GM-CSF [6]: significantly reduced
- expression level of IL-1β [6]: significantly reduced
- expression level of IL-6 [6]: significantly reduced
- expression level of IL-33 [6]: significantly reduced
- expression level of TNF-α [6]: significantly reduced
- expression level of VEGF [6]: significantly reduced
- expression level of COX-2 [7]: decreased
- expression level of FTH1 [7]: increased
- expression level of GPX4 [7]: increased
- expression level of TFR [7]: decreased
